Test results as given in patent publication US7271165B2, “Rifamycin analogs and uses thereof” (priority 2003, dated 2007).
Values after ≈ are worked out from the molar mass of the structure shown.

Key:
H. flu = type: cell-based, H. influenza; conditions: H. flu
E coli = assay: MIC assay, E coli; type: cell-based
E. faecalis = assay: MIC assay, E. faecalis; type: cell-based, Enterococcus faecalis
S. pneumo. = assay: MIC assay, S. pneumo.; type: cell-based, Streptococcus pneumoniae
S. aureus = assay: MIC assay, S. aureus; type: cell-based, Staphylococcus aureus

SMILES	MIC (μg/mL) H. flu (H. flu)	MIC (μg/mL) E coli (E coli)	MIC (μg/mL) E. faecalis (E. faecalis)	MIC (μg/mL) S. pneumo. (S. pneumo.)	MIC (μg/mL) S. aureus (S. aureus)
COC1C=COC2(C)Oc3c(C)c(O)c4c(=O)c(c5oc6cc(N7CCC(C)(NC(C)=O)CC7)cc(O)c6nc-5c4c3C2=O)NC(=O)C(C)=CC=CC(C)C(O)C(C)C(O)C(C)C(O)C1C (stereo not drawn) [Compound 74, 25-O-deacetyl-3′-hydroxy-5′-[4-methyl-4-acetylamino-1-piperidinyl]benzoxazinorifamycin]	0.12 µg/mL (≈ 0.131 µM)	>8 µg/mL	0.5 µg/mL (≈ 0.548 µM)	0.001 µg/mL (≈ 0.0011 µM)	0.03 µg/mL (≈ 0.0329 µM)
COC1C=COC2(C)Oc3c(C)c(O)c4c(=O)c(c5oc6cc(N7CCC(N(C)C)C7)cc(O)c6nc-5c4c3C2=O)NC(=O)C(C)=CC=CC(C)C(O)C(C)C(O)C(C)C(OC(C)=O)C1C [Compound 75, 3′-hydroxy-5′-[(3R)—N,N-dimethylamino-1-pyrrolidinyl]benzoxazinorifamycin]	0.25 µg/mL (≈ 0.274 µM)	4 µg/mL (≈ 4.38 µM)	0.12 µg/mL (≈ 0.131 µM)	0.00012 µg/mL (≈ 0.000131 µM)	0.002 µg/mL (≈ 0.00219 µM)
COC1C=COC2(C)Oc3c(C)c(O)c4c(=O)c(c5sc6cc(N7CCN8CCCC8C7)ccc6nc-5c4c3C2=O)NC(=O)C(C)=CC=CC(C)C(O)C(C)C(O)C(C)C(OC(C)=O)C1C [Compound 76, 5′-[(8aS)octahydropyrrolo [1,2-a]pyrazin-2-yl]benzthiazinorifamycin]	0.25 µg/mL (≈ 0.27 µM)	4 µg/mL (≈ 4.32 µM)	0.5 µg/mL (≈ 0.54 µM)	0.00025 µg/mL (≈ 0.00027 µM)	0.008 µg/mL (≈ 0.00865 µM)
COC1C=COC2(C)Oc3c(C)c(O)c4c(=O)c(c5sc6cc(N7CCN8CCCC8C7)ccc6nc-5c4c3C2=O)NC(=O)C(C)=CC=CC(C)C(O)C(C)C(O)C(C)C(O)C1C [Compound 77, 25-O-deacetyl-5′-[(8aS)octahydropyrrolo[1,2-a]pyrazin-2-yl]benzthiazinorifamycin]	0.12 µg/mL (≈ 0.136 µM)	2 µg/mL (≈ 2.26 µM)	0.25 µg/mL (≈ 0.283 µM)	0.00025 µg/mL (≈ 0.000283 µM)	0.002 µg/mL (≈ 0.00226 µM)
COC1C=COC2(C)Oc3c(C)c(O)c4c(=O)c(c5oc6cc(N7CCN(C)CC7)cc(O)c6nc-5c4c3C2=O)NC(=O)C(C)=CC=CC(C)C(O)C(C)C(O)C(C)C(O)C1C (stereo not drawn) [Compound 82]	0.25 µg/mL (≈ 0.292 µM)	4 µg/mL (≈ 4.67 µM)	0.015 µg/mL (≈ 0.0175 µM)	0.00012 µg/mL (≈ 0.00014 µM)	0.002 µg/mL (≈ 0.00233 µM)
COC1C=COC2(C)Oc3c(C)c(O)c4c(=O)c(c5oc6cc(N7CCN8CCCC8C7)cc(O)c6nc-5c4c3C2=O)NC(=O)C(C)=CC=CC(C)C(O)C(C)C(O)C(C)C(O)C1C (stereo not drawn) [Compound 83]	0.25 µg/mL (≈ 0.283 µM)	4 µg/mL (≈ 4.53 µM)	0.03 µg/mL (≈ 0.034 µM)	0.00025 µg/mL (≈ 0.000283 µM)	0.002 µg/mL (≈ 0.00226 µM)
COC1C=COC2(C)Oc3c(C)c(O)c4c(=O)c(c5oc6cc(N7CCN8CCCC8C7)cc(O)c6nc-5c4c3C2=O)NC(=O)C(C)=CC=CC(C)C(O)C(C)C(O)C(C)C(O)C1C (stereo not drawn) [Compound 84]	0.25 µg/mL (≈ 0.283 µM)	8 µg/mL (≈ 9.06 µM)	0.03 µg/mL (≈ 0.034 µM)	0.00025 µg/mL (≈ 0.000283 µM)	0.004 µg/mL (≈ 0.00453 µM)
COC1C=COC2(C)Oc3c(C)c(O)c4c(=O)c(c5oc6cc(N7CCN(Cc8ccccc8)CC7)cc(O)c6nc-5c4c3C2=O)NC(=O)C(C)=CC=CC(C)C(O)C(C)C(O)C(C)C(O)C1C (stereo not drawn) [Compound 86]	8 µg/mL (≈ 8.57 µM)	>8 µg/mL	>8 µg/mL	0.001 µg/mL (≈ 0.00107 µM)	0.03 µg/mL (≈ 0.0322 µM)
COC1C=COC2(C)Oc3c(C)c(O)c4c(=O)c(c5oc6cc(N7CC(C)NC(C)C7)cc(O)c6nc-5c4c3C2=O)NC(=O)C(C)=CC=CC(C)C(O)C(C)C(O)C(C)C(O)C1C (stereo not drawn) [Compound 87]	0.25 µg/mL (≈ 0.287 µM)	4 µg/mL (≈ 4.59 µM)	0.06 µg/mL (≈ 0.0689 µM)	0.0005 µg/mL (≈ 0.000574 µM)	0.008 µg/mL (≈ 0.00918 µM)
